Assay results taken from patent publication US7084141B2, “Inhibitors of macrophase migration inhibitory factor and methods for identifying the same” (Avanir Pharmaceuticals, priority 2001, dated 2006).

Key:
[1] = target: T1, MIF produced by THP-1 cells (Homo sapiens, UniProt P14174); assay: ELISA of immunoreactive MIF from LPS stimulated THP-1 cells treated with compound; format: cell-based
T1 construct: a test cell may express the MIF naturally (e.g., THP-1 cells); endogenous in cells; host or cells: THP-1 cells stimulated with LPS
T1 sequence (P14174 2-115 limits assumed): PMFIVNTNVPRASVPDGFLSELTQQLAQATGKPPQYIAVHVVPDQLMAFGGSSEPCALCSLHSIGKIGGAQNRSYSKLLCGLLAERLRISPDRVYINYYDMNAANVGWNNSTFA
Experimental: Alternatively, ELISA may be preferred to detect and quantify the amount of MIF in cell supernatants. ELISA is preferred for detection in high throughput screening. Briefly, 96-well plates are coated with an anti-MIF antibody or anti-tag antibody, washed, and blocked with 2% BSA. Cell supernatant is then added to the wells. Following incubation and washing, a second antibody (e.g., to MIF) is added. The second antibody may be coupled to a label or detecting reagent, such as an enzyme or to biotin. Following further incubation, a developing reagent is added and the amount of MIF determined using an ELISA plate reader. The developing reagent is a substrate for the enzyme coupled to the second antibody (typically an anti-isotype antibody) or for the enzyme coupled to streptavidin. Suitable enzymes are well known in the art and include horseradish peroxidase, which acts upon a substrate (e.g., ABTS) resulting in a colorimetric reaction. It is recognized that rather than using a second antibody coupled to an enzyme, the anti-MIF antibody may be directly coupled to the horseradish peroxidase, or other equivalent detection reagent. If desired, cell supernatants may be concentrated to raise the detection level. Further, detection methods, such as ELISA and the like may be employed to monitor intracellular as well as extracellular levels of MIF. When intracellular levels are desired, a cell lysate is preferred. When extracellular levels are desired, media can be screened.
In another experiment (FIG. 2), varying concentrations of five different inhibitor analogs were added to LPS stimulated THP-1 cells and allowed to incubate overnight. The following day the amount of immunoreactive MIF detected was evaluated by ELISA. Compound 7e inhibited the ability of the antibody to recognize MIF in a dose dependent fashion with an ED50 of 2 μM, similar to the response obtained with analogs compound 7b and compound 7d.
In a further experiment (FIG. 3), the ability of compound 7e to decrease the immunoreactivity of MIF produced by THP-1 cells was determined. THP-1 cells were treated with 10 μg/ml of LPS and 10 μM of compound 7e was added at various times post-LPS stimulation and immunoreactivity monitored with an anti-MIF monoclonal. […] Thus, this experiment measures the activity of compounds or buffer alone controls on MIF detection when the compounds are initially added at various times to cell cultures and then the corresponding conditioned media samples are processed in a time dependent fashion thereafter.

[2] = target: T2, MIF (Homo sapiens, UniProt P14174); assay: Immunoprecipitation of MIF from conditioned media of LPS treated THP-1 cells with monoclonal or polyclonal antibody; format: cell-based; details: 10 μM compound; LPS 10 μg/ml; not observed with polyclonal antibody
T2 sequence (P14174 2-115 limits assumed): T1 sequence (P14174 2-115 limits assumed)
Experimental: Cell culture experiments were designed to characterize the activity of candidate compounds, MIF expression, trafficking, and export. Cell and conditioned medium fractions are prepared for immunoprecipitation essentially as described previously (Florkiewicz et al., Growth Factors 4:265–275, 1991; Florkiewicz et al., Ann. N.Y. Acad. Sci. 638:109–126) except that 400 μl of lysis buffer (1% NP-40, 0.5% deoxycholate, 20 mM Tris pH 7.5, 5 mM EDTA, 2 mM EGTA, 0.01 mM phenylmethylsufonyl fluoride, 10 ng/ml aprotinin, 10 ng/ml leupeptin, 10 ng/ml peptstatin) is added to the medium fraction after clarification by centrifugation in a microfuge for 15 minutes. Cell or medium fractions are incubated with monoclonal or polyclonal antibodies to MIF and GammaBind™ G Sepharose® (Pharmacia LKB Biotechnology, Uppsala, Sweden) was added for an additional 30 minutes incubation. Immune complexes are sedimented by microfuge centrifugation, washed three times with lysis buffer, and four times with ice cold immunoprecipitation wash buffer (0.15M NaCl, 0.01 M Na-phosphate pH 7.2, 1% deoxycholate, 1% NP-40, 0.1% sodium dodecyl sulfate). Immune complexes are dissociated directly in SDS gel sample buffer 125 mM Tris, pH 6.8, 4% SDS, 10% glycerol, 0.004% bromphenol blue, 2 mM EGTA, and separated by 12% SDS-PAGE. The gel is processed for fluorography, dried, and exposed to X-ray film at −70° C. […]

Cn1c(=O)c([N+](=O)[O-])c(N2CCN(C(=O)c3ccco3)CC2)c2ccccc21 [compound 7e]
immunoreactivity of MIF with anti-MIF monoclonal ([1]; 10 μM added at various times post-LPS (10 μg/ml)): immunoreactivity is rapidly lost
EC50 ([1]; LPS stimulated THP-1 cells, incubated overnight, read-out: ED50, inhibition of the ability of the antibody to recognize MIF (ELISA)): 2000 nM
detectable MIF in conditioned media using the monoclonal antibody [2]: significant loss of detectable MIF
